Laboratory results published in ChEMBL document CHEMBL6096731, “Structure-Guided Optimization and Preclinical Evaluation of 6-O-Benzylguanine-Based Pin1 Inhibitor for Hepatocellular Carcinoma Treatment” (J Med Chem, 2025).
pIC50, pKd: −log10 of the molar value. Active and inactive are the calls of the source. The calls are words filed in the database; no cut-off is given here.

Tests used:
[1] = target: T1, Peptidyl-prolyl cis-trans isomerase NIMA-interacting 1 (Homo sapiens, UniProt Q13526); assay: Inhibition of full length pin1 (unknown origin) expressed in Escherichia coli
T1 sequence (Q13526 whole entry): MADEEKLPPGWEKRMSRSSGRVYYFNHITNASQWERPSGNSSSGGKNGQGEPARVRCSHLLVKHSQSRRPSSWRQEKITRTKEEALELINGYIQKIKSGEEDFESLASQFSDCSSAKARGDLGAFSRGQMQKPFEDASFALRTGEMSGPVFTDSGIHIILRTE

[2] = Antiproliferative activity against human HCC cells assessed as cell viability incubated for 72 hrs by alamar blue dye based assay; type: toxicity; settings: HCC cells
[3] = target: Peptidyl-prolyl cis-trans isomerase NIMA-interacting 4 (Homo sapiens) (UniProt Q9Y237); assay: Inhibition of full length pin4 (unknown origin) expressed in Escherichia coli
Sequence of Peptidyl-prolyl cis-trans isomerase NIMA-interacting 4 (Homo sapiens) (Q9Y237 whole entry): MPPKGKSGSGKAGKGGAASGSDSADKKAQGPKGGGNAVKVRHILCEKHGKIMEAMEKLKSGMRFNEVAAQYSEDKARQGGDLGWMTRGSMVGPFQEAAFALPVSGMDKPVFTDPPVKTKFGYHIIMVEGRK

Homo sapiens = species on record: Homo sapiens; assay: Inhibition of FKBP12 (unknown origin) expressed in Escherichia coli
[4] = target: Peptidyl-prolyl cis-trans isomerase A (Homo sapiens) (UniProt P62937); assay: Inhibition of Cyclophilin A (unknown origin) expressed in Escherichia coli
Sequence of Peptidyl-prolyl cis-trans isomerase A (Homo sapiens) (P62937 whole entry, looked up): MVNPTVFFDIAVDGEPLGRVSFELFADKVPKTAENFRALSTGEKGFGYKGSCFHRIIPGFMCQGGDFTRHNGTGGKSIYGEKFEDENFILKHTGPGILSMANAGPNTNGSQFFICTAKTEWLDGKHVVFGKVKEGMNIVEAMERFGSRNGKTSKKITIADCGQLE

[5] = target: T1, Peptidyl-prolyl cis-trans isomerase NIMA-interacting 1; assay: Binding affinity to GST-tagged pin1 (unknown origin) assessed as thermal stabilization at 1 uM at 48 to 58 degreeC by cellular thermal shift assay
[6] = target: T1, Peptidyl-prolyl cis-trans isomerase NIMA-interacting 1; assay: Binding affinity to GST-tagged pin1 (unknown origin) assessed as dissociation constant by SPR analysis
[7] = target: T1, Peptidyl-prolyl cis-trans isomerase NIMA-interacting 1; assay: Inhibition of pin1 in human SK-HEP1 cells at 5 uM by mass spectrometry analysis; type: cell-based
[8] = Chemical stability of compound at pH 7 measured after 24 hrs by HPLC analysis; type: physicochemical; settings: buffer, pH 7, 24 h
[9] = Chemical stability of compound by HPLC analysis; type: physicochemical
SK-HEP1 [10] = assay: Antiproliferative activity human SK-HEP1 cells assessed as cell viability measured up to 120 hrs; type: functional, cell-based
SK-HEP1 [11] = assay: Antiproliferative activity human SK-HEP1 cells assessed as cell viability measured at 96 hrs; type: functional, cell-based
SK-HEP1 [12] = assay: Antiproliferative activity human SK-HEP1 cells assessed as cell viability measured at 120 hrs; type: functional, cell-based
SK-HEP1 [13] = assay: Antiproliferative activity human SK-HEP1 cells assessed as inhibition of cell proliferation incubated for 120 hrs; type: functional, cell-based; settings: dose <= 2.0 µM
Hep 3B2 = assay: Antiproliferative activity human Hep3B cells assessed as inhibition of cell proliferation incubated for 120 hrs; type: functional, cell-based
SK-HEP1 [14] = assay: Induction of cell cycle arrest in human SK-HEP1 cells assessed as accumulation of cells at S phase by PI staining based flow cytometry analysis; type: functional
HCC = assay: Induction of apoptosis in human HCC cells at 5 uM by Annexin V/FITC staining based flow cytometry analysis; type: functional, cell-based
SK-HEP1 [15] = assay: Inhibition of cell migration in human SK-HEP1 cells at 5 uM incubated for 24 hrs by crystal violet staining based microscopic analysis; type: functional
SK-HEP1 [16] = assay: Inhibition of cell migration in human SK-HEP1 cells at 5 uM incubated for 24 hrs by wound healing assay; type: functional, cell-based
[17] = target: T1, Peptidyl-prolyl cis-trans isomerase NIMA-interacting 1; assay: Inhibition of pin1 in human SK-HEP1 cells assessed as reduction in c-myc level at 5 uM incubated for 24 hrs by immunoblotting analysis; type: cell-based
[18] = target: T1, Peptidyl-prolyl cis-trans isomerase NIMA-interacting 1; assay: Inhibition of pin1 in human SK-HEP1 cells assessed as reduction in beta-catenin level at 5 uM incubated for 24 hrs by immunoblotting analysis; type: cell-based
[19] = Drug localization in nucleus of human SK-HEP1 cells at 5 uM incubated for 24 hrs by Hoechst 33342 staining based fluorescence microscopic analysis; type: ADME, subcellular; settings: sk-hep1, 24 h
SK-HEP1 [20] = assay: Upregulation of miR-29b expression in human SK-HEP1 cells at 5 uM incubated for 36 hrs by RT-PCR analysis; type: functional, cell-based
SK-HEP1 [21] = assay: Upregulation of miR-122 expression in human SK-HEP1 cells at 5 uM incubated for 36 hrs by RT-PCR analysis; type: functional, cell-based
SK-HEP1 [22] = assay: Upregulation of miR-146a expression in human SK-HEP1 cells at 5 uM incubated for 36 hrs by RT-PCR analysis; type: functional, cell-based
SK-HEP1 [23] = assay: Upregulation of let7a expression in human SK-HEP1 cells at 5 uM incubated for 36 hrs by RT-PCR analysis; type: functional, cell-based
SK-HEP1 [24] = assay: Antiproliferative activity against human SK-HEP1 cells transfected with human pin1 assessed as cell viability at 5 uM incubated for 72 hrs; type: functional, cell-based
SK-HEP1 [25] = assay: Antitumor activity against human SK-HEP1 cells xenografted in female BALB/c mouse assessed as reduction in tumor growth at 2.5 mg/kg, po measured every 4 days; type: functional, organism-based; settings: time 4.0 day
[26] = Toxicity in female BALB/c mouse implanted with human SK-HEP1 cells assessed as effect on body weight at 2.5 mg/kg, po measured every 4 days; type: organism-based; settings: in vivo, 96 h, time 4 day
SK-HEP1 [27] = assay: Antitumor activity against human SK-HEP1 cells xenografted in female BALB/c mouse assessed as downregulation of c-myc level at 2.5 mg/kg, po measured every 4 days by immunoblotting analysis; type: functional, organism-based; settings: time 4.0 day
SK-HEP1 [28] = assay: Antitumor activity against human SK-HEP1 cells xenografted in female BALB/c mouse assessed as downregulation of beta-catenin level at 2.5 mg/kg, po measured every 4 days by immunoblotting analysis; type: functional, organism-based; settings: time 4.0 day
[29] = target: Peptidyl-prolyl cis-trans isomerase NIMA-interacting 1 (Mus musculus) (UniProt Q9QUR7); assay: Binding affinity to mouse pin1
Sequence of Peptidyl-prolyl cis-trans isomerase NIMA-interacting 1 (Mus musculus) (Q9QUR7 whole entry): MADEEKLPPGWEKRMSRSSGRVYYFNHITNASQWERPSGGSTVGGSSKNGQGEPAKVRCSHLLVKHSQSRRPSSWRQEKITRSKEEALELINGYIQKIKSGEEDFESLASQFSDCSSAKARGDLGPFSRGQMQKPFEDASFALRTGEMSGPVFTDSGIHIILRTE

SK-HEP1 [30] = assay: Antitumor activity against human SK-HEP1 cells xenografted in c-Myc/Alb-Cre transgenic female BALB/c mouse model assessed as downregulation of beta-catenin level in liver at 2.5 mg/kg, po measured every 4 days by immunoblotting analysis; type: functional, organism-based; settings: time 4.0 day
SK-HEP1 [31] = assay: Antitumor activity against human SK-HEP1 cells xenografted in c-Myc/Alb-Cre transgenic female BALB/c mouse model assessed as downregulation of c-myc level in liver at 2.5 mg/kg, po measured every 4 days by immunoblotting analysis; type: functional, organism-based; settings: time 4.0 day
[32] = Drug distribution in BALB/c mouse liver measured after 24 hrs by HPLC analysis; type: ADME, tissue-based; settings: in vivo
[33] = Drug distribution in BALB/c mouse tumor measured after 24 hrs by HPLC analysis; type: ADME, tissue-based, Neoplasm; settings: in vivo
SK-HEP1 [34] = assay: Antitumor activity against human SK-HEP1 cells xenografted in female BALB/c mouse assessed as increase in pin1 level in brain at 2.5 mg/kg, po measured every 4 days; type: functional, organism-based; settings: time 4.0 day
SK-HEP1 [35] = assay: Antitumor activity against human SK-HEP1 cells xenografted in female BALB/c mouse assessed as increase in pin1 level in liver at 2.5 mg/kg, po measured every 4 days; type: functional, organism-based; settings: time 4.0 day
SK-HEP1 [36] = assay: Antitumor activity against human SK-HEP1 cells xenografted in female BALB/c mouse assessed as increase in pin1 level in spleen at 2.5 mg/kg, po measured every 4 days; type: functional, organism-based; settings: time 4.0 day
SK-HEP1 [37] = assay: Antitumor activity against human SK-HEP1 cells xenografted in female BALB/c mouse assessed as increase in pin1 level in kidney at 2.5 mg/kg, po measured every 4 days; type: functional, organism-based; settings: time 4.0 day
SK-HEP1 [38] = assay: Antitumor activity against human SK-HEP1 cells xenografted in female BALB/c mouse assessed as increase in pin1 level in heart at 2.5 mg/kg, po measured every 4 days; type: functional, organism-based; settings: time 4.0 day
SK-HEP1 [39] = assay: Antitumor activity against human SK-HEP1 cells xenografted in female BALB/c mouse assessed as increase in pin1 level in tumor at 2.5 mg/kg, po measured every 4 days; type: functional, organism-based; settings: time 4.0 day
[40] = Metabolic stability in mouse microsomes measured after 120 mins; type: ADME, Liver, Microsome; settings: 2 h
[41] = Toxicity in c-Myc/Alb-Cre transgenic mouse assessed as effect on ALT level at 2.5 mg/kg, po; type: organism-based; settings: in vivo
[42] = Toxicity in c-Myc/Alb-Cre transgenic mouse assessed as effect on AST level at 2.5 mg/kg, po; type: organism-based; settings: in vivo
[43] = Toxicity in c-Myc/Alb-Cre transgenic mouse assessed as effect on TP level at 2.5 mg/kg, po; type: organism-based; settings: in vivo
[44] = Toxicity in c-Myc/Alb-Cre transgenic mouse assessed as effect on ALP level at 2.5 mg/kg, po; type: organism-based; settings: in vivo
[45] = Toxicity in c-Myc/Alb-Cre transgenic mouse assessed as effect on TBIL level at 2.5 mg/kg, po; type: organism-based; settings: in vivo
[46] = Toxicity in c-Myc/Alb-Cre transgenic mouse assessed as effect on ALB level at 2.5 mg/kg, po; type: organism-based; settings: in vivo
[47] = Toxicity in c-Myc/Alb-Cre transgenic mouse assessed as heart damage at 2.5 mg/kg, po; type: organism-based; settings: in vivo
[48] = Toxicity in c-Myc/Alb-Cre transgenic mouse assessed as liver damage at 2.5 mg/kg, po; type: organism-based; settings: in vivo
[49] = Toxicity in c-Myc/Alb-Cre transgenic mouse assessed as spleen damage at 2.5 mg/kg, po; type: organism-based; settings: in vivo
[50] = Toxicity in c-Myc/Alb-Cre transgenic mouse assessed as lung damage at 2.5 mg/kg, po; type: organism-based; settings: in vivo
[51] = Toxicity in c-Myc/Alb-Cre transgenic mouse assessed as kidney damage at 2.5 mg/kg, po; type: organism-based; settings: in vivo
[52] = target: Voltage-gated inwardly rectifying potassium channel KCNH2 (Homo sapiens, UniProt Q12809)
Sequence of Voltage-gated inwardly rectifying potassium channel KCNH2 (Q12809 whole entry): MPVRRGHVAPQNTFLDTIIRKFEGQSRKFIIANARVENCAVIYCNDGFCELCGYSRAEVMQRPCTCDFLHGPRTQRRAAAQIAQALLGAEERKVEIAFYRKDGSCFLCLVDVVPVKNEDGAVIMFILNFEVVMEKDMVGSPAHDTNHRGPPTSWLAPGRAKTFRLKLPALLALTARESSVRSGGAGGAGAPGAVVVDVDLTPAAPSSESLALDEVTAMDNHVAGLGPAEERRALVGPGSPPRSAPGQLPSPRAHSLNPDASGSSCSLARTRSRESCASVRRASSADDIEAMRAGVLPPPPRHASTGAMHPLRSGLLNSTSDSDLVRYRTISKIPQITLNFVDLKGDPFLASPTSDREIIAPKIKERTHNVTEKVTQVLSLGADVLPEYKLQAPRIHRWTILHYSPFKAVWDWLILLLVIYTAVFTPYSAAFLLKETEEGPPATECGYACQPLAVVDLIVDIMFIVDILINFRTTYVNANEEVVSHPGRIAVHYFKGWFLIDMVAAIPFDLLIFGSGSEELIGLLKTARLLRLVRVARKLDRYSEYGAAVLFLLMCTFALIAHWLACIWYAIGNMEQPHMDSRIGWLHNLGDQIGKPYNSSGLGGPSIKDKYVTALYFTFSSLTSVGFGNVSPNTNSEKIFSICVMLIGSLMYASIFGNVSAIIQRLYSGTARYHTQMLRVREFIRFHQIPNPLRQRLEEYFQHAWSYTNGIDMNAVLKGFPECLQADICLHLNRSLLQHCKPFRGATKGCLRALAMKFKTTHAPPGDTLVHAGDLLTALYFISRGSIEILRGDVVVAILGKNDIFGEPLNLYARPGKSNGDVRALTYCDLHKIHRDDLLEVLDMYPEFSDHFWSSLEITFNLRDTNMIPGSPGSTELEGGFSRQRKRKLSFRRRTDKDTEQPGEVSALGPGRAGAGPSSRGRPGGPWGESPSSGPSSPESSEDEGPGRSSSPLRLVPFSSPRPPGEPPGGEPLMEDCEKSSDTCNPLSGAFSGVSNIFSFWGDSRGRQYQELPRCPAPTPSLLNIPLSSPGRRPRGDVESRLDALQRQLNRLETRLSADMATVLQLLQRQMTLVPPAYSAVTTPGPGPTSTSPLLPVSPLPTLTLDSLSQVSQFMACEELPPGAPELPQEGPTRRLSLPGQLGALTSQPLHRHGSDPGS

Nc1nc(OCc2ccc3c(c2)OCO3)c2nc[nH]c2n1
pIC50 [1]: 7.19 | IC50 at 72 h [2]: 2600 nM | inhibition [3]: inactive | inhibition (Homo sapiens): inactive | inhibition [4]: inactive | Activity [5]: Active | pKd [6]: 6.81 | inhibition [7]: Active | Stability [8]: Stable | Stability [9]: Stable | Activity (SK-HEP1 [10]): Active | Activity (SK-HEP1 [11]): Active | Activity (SK-HEP1 [12]): Active | Activity (SK-HEP1 [13]): Active | Activity (Hep 3B2): Active | Activity (SK-HEP1 [14]): Active | Activity (HCC): Active | inhibition (SK-HEP1 [15]): Active | inhibition (SK-HEP1 [16]): Active | inhibition [17]: Active | inhibition [18]: Active | Drug uptake [19]: Active | Activity (SK-HEP1 [20]): Active | Activity (SK-HEP1 [21]): Active | Activity (SK-HEP1 [22]): Active | Activity (SK-HEP1 [23]): Active | Activity (SK-HEP1 [24]): Active | Activity (SK-HEP1 [25]): Active | Activity [26]: Non-toxic | Activity (SK-HEP1 [27]): Active | Activity (SK-HEP1 [28]): Active | Activity [29]: Active | Activity (SK-HEP1 [30]): Active | Activity (SK-HEP1 [31]): Active | Drug uptake [32]: Active | Drug uptake [33]: Active | Activity (SK-HEP1 [34]): Active | Activity (SK-HEP1 [35]): Active | Activity (SK-HEP1 [36]): Active | Activity (SK-HEP1 [37]): Active | Activity (SK-HEP1 [38]): Active | Activity (SK-HEP1 [39]): Active | Stability [40]: Stable | Activity [41]: Non-toxic | Activity [42]: Non-toxic | Activity [43]: Non-toxic | Activity [44]: Non-toxic | Activity [45]: Non-toxic | Activity [46]: Non-toxic | Activity [47]: Non-toxic | Activity [48]: Non-toxic | Activity [49]: Non-toxic | Activity [50]: Non-toxic | Activity [51]: Non-toxic | pIC50 [52]: < 4.52
